Results reported in paper PMC3644566 (Journal of chemical information and modeling, 2013).

Legend:
[1] = tested on: P. falciparum 3D7 strain; test: P. falciparum growth inhibition assay; type: cell-based; conditions: Plasmodium falciparum, 3D7, 72 h, read-out: consensus EC50
[2] = tested on: P. falciparum 3D7 or K1 strains; test: P. falciparum growth inhibition assays of VS hits; type: cell-based, Plasmodium falciparum; conditions: against either 3D7 or K1 strains, most potent VS hit

Structure (SMILES)	EC50 [1] [nM]	EC50 [2] [nM]
CCN(CC)CCCC(C)Nc1ccnc2cc(Cl)ccc12 (stereo not drawn) [chloroquine]	26.8	–
OC(c1cc(C(F)(F)F)nc2c(C(F)(F)F)cccc12)C1CCCCN1 (stereo not drawn) [mefloquine]	39.8	–
C=CC1CN2CCC1CC2C(OC(=O)C1CC1)c1ccnc2ccccc12 (stereo not drawn) [SJ000565000]	–	95.6
